The values that follow come from paper PMC3494461 (Journal of the American Chemical Society, 2012).

Test [1] has as its target T1, DXP synthase (Escherichia coli, UniProt P77488).
T1 sequence (P77488 2-620): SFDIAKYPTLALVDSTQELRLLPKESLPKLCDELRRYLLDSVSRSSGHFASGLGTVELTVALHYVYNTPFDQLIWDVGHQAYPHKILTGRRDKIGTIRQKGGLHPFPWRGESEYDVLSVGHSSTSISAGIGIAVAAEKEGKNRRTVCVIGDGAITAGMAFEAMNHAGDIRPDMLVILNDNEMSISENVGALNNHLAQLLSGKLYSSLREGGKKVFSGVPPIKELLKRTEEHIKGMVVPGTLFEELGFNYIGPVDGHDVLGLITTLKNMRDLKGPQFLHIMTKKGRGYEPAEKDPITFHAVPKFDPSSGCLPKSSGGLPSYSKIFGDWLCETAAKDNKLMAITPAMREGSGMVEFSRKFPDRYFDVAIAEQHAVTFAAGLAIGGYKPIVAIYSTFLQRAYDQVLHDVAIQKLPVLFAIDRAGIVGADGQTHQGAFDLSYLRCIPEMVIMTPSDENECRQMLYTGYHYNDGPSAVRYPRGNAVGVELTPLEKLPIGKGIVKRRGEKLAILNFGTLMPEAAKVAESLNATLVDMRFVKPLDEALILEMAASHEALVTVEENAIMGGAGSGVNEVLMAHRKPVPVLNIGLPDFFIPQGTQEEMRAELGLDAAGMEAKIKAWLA
As to the kind of experiment: near-UV CD of enzyme-bound ThDP. Format: binding. Conditions: AP tautomer dominant at pH 7.98.

The target in test [2] is T1, DXP synthase. Kind of test: CD titration at […] nm. Type of test: binding.
Test [3] deals with T1, DXP synthase. Kind of test: steady-state DXP formation, Michaelis-Menten plot. Conditions: D-GAP supplied as D,L-GAP; with pyruvate. Format: biochemical.

Each structure is given as a SMILES string.

Consider `Cc1ncc(C[n+]2csc(CCOP(=O)(O)OP(=O)(O)O)c2C)c(N)n1` [ThDP], for which the “near-UV CD of enzyme-bound ThDP (negative band at 320 nm)” value at DXP synthase [1] is recorded as “suggesting the preponderance of the AP tautomer of ThDP bound to the enzyme”.
`CC(=O)C(=O)O` [pyruvate]: the Kd on DXP synthase [2] is around 90 µM.
`O=C[C@H](O)COP(=O)(O)O` [D-GAP]: the Km result at DXP synthase [3] is recorded as “Michaelis-Menten plot to determine the Km for D-GAP”.
